# Measurements published in patent US10195245B2, “Tetrapeptides derived from human C-X-C chemokines useful for treatment of various skin conditions” (Helix Biomedix, Inc., priority 2013, dated 2019).
# “Also recorded” adds a separate entry of the source. Marks after values point to notes of the source that are not given here. Where a SMILES comes first, the peptide text is derived from it.
# Legend:
# Type in all cases: cell-based
# [1] = MTT cytotoxicity test on keratinocytes; details: human, normal human epidermal keratinocytes, 50 to 500 μg/ml tested
# Experimental: C-X-C chemokines are well known for their chemotactic activity toward many cell types. […] The experiment was performed in the serum-free keratinocyte growth medium in the absence of supplement in order to restrain cells proliferation. The wounded area was examined by phase-contrast microscopy at the indicated times. […] At 20 μg/ml, the percentage of wound closure induced by SEQ IDs 1, 2, 3, 4, 5, 6 and 7 ranges from 165% to 240% compared to that of PBS treated which was taken as 100% (Table 1). […] To confirm that the peptides are not toxic to the keratinocytes at the concentrations tested for scratch wound closure all peptides were subjected to the MTT cytotoxicity test. None of the peptides were cytotoxic to normal skin keratinocyte in vitro after 24 hrs incubation at concentrations up to 500 ug/ml.
# To make sure the peptides are not cytotoxic to the cells, normal human epidermal keratinocytes were seeded to a 96-well plate. The plate was incubated at 37° C. in the presence of 5% CO2 to allow the cells to grow to >95% confluent. Peptides are diluted into stock solutions at concentrations of 50, 100, 200, and 500 μg/ml. The cell culture media are replaced with fresh media containing peptides at various concentrations then incubated at 37° C. and 5% CO2 for 24 hr. At the end of treatment the cell viability was measured using MTT assay kit purchased from ATCC (Manassas Va.).
# [2] = test system: human umbilical vein endothelial cells (HUVEC); experiment: In vitro angiogenesis assay (capillary tube formation); set-up: key to Promote tube formation 3 hrs / Promote tube formation 5 hrs: 0: Individual cells, well separated; 1: Cells begin to migrate and align themselves; 2: Capillary tubes visible, no sprouting; 3: Sprouting of new capillary tubes visible; 4: Closed polygons begin to form; 5: Complex mesh like structures develop
# Text: Angiogenesis, the formation of new capillaries from the pre-existing vascular network, is an essential step of wound repair. The peptides generated in the current invention, SEQ ID NOs 1-7, also stimulate capillary tube formation. The in vitro angiogenesis assay uses human umbilical vein endothelial cells (HUVEC) to measurer a series of events that lead to forming new capillary tubes. Upon induction, the HUVEC undergoes migration to align then sprouting from individual cells. The sprouting event leads to formation of new capillary tubes which further develop to form closed polygons. Eventually a complex mesh like structure is developed. Human cathelicidin peptide, LL-37, is a well-studied example to promote angiogenesis. It is used as positive control in the assessment. […] Compared to LL-37, SEQ ID NOs.
# The angiogenesis assay was performed using the In Vitra Angiogenesis Assay Kit purchased from Millipore. Briefly, matrix layer was prepared with ECMATRIX™ solution according to the manufacturer's instructions. The human umbilical vein endothelial cells (HUVEC) (ATCC, Manassas, Va.) were cultured in complete F12K medium (ATCC, Manassas, Va.) supplemented with 0.1 mg/ml of heparin (Sigma-Aldrich), 30 ug/ml of ECGS (Sigma-Aldrich) and 10% fetal bovine serum (ATCC, Manassas, Va.). The cells were harvested and resuspended in complete media. The peptide was mixed with cells at approximately 5×10^3-1×10^4 cells per well in a 96-well plate prior to seeding cells onto the surface of the polymerized ECMATRIX™ solution. The plate was incubated at […], 5% CO2 for up to 9-12 hr. Tube formation was inspected under an inverted light microscope periodically and pictures were taken at 3 and 5 hr intervals and assigned a numerical value to each pattern as shown below.
# [3] = test system: S. aureus LTA induced IL-6 expression on human skin keratinocytes; experiment: Blocking LTA induced IL-6 expression (ELISA); details: LTA 10 ug/ml pre-incubated with peptide 50 μg/ml 30 min, 24 hrs
# Text: The Gram-positive cell wall component peptidoglycan (PGN) is well known to stimulate pro-inflammatory cytokine expression. Lipoteichoic acid (LTA) is the key molecule in PGN that causes a concentration- and time-dependent increase in pro-inflammatory signals including nitric oxide synthase (iNOS), cyclooxygenase-2 (COX-2), IL-1 beta, TNF-alpha and IL-6 up-regulation (Lin et al., 2010). We therefore pretreated LTA with the inventive peptides and then assess the IL-6 stimulatory activity upon contact with human skin keratinocytes. […] It is very likely that the positively charged residues of the tetrapeptides bind to the negatively charged LTA thus blocking the interaction of LTA with its receptors. This is significant as bacterial cell wall components have been implicated in inflammatory skin conditions such as acne, rosacea, atopic dermatitis etc.
# S. aureus LTA induced IL-6 stimulation on human epidermal keratinocytes. Human keratinocytes were grown to >80% confluence in serum free keratinocyte cultural media. S. aureus LTA 10 ug/ml was pre-incubated with each peptide (50 μg/ml) at room temperature for 30 min then the mixture was transferred to keratinocyte culture. The treatment was allowed for 24 hrs. The supernatant was removed. […]
# [4] = test system: SOR-300-FT human psoriasis tissue construct; experiment: qPCR gene expression on SOR-300-FT psoriasis tissue
# Text: SOR-300-FT, developed by MatTek Corporation (Ashland Mass.), is a highly differentiated in vitro psoriasis tissue comprised of normal, human-derived keratinocytes and psoriatic fibroblasts Morphologically, the tissue is of uniform thickness and it expresses increased levels of hyperproliferated cells as well as pro-inflammatory markers such as psoriasin, elafin, human beta-defensin-2, and LL-37 etc (Ayehunie et al., 2012). The pro-inflammatory condition of the tissue prompts us to test the inventive peptides to see if they modulate the inflammatory response. Due to the high cost of the tissue model, a representative peptide SEQ ID NO 1, HB2233, was selected as a proof of concept study using SOR-300-FT tissue model. The SOR-300-FT tissues were treated with HB2233 in duplicate at 200 μg/ml. Total 12 gene markers associated with psoriasis condition are studied. […] Both HB2233 and calcipotriol down-regulate Ki67 expression which is responsible for the hyperproliferation and early maturation of keratinocytes in psoriasis skin.
# SOR-300-FT™ tissues were transferred to 6-well plates containing 0.9 ml of pre-warmed assay medium and equilibrated to standard culture conditions (37° C., 5% CO2) for 1 hour. After the 1 hr equilibration, the tissues were re-fed with fresh medium as follow: 1) for the 24 hr time point, tissues were feed with 0.9 ml of medium and 2) for time points >24 hr, tissues were feed with 5 ml of culture medium by placing the cell culture inserts on top of the washers (Part # EPI-WSHR, MatTek Corporation). Next, 50 μl of the test articles were applied topically to the psoriatic tissues (n=3) and the test article was added to the culture medium at the 3 concentrations chosen by the Sponsor. At times 24, and 48 hours: a) the tissues were rinsed topically 3× with 300-400 μL of PBS, b) the inserts containing the tissues were held tightly with sterile forceps and the test article was rinsed gently by immersing the insert into PBS and decant medium from insert, and c) fresh test article was re-applied to the tissue immediately after rinsing and decanting (50 μL topically). Analysis was performed at t=72 hr (3× repeat applications). cDNA was generated using the Qiagen RT2 First Strand Kit (cat#330401). Relative gene expression was measured using Qiagen RT2 SYBR Green qPCR Mastermix (cat#330502) and Qiagen RT2 primers. Analysis was carried out using Bio-Rad CFX software.
# [5] = 72 hr, HB2233 at 200 μg/ml, listed as calcipotriol
compound,measurement,setting,value
"CC[C@H](C)[C@H](N)C(=O)N[C@@H](CCC(=O)O)C(=O)N[C@@H](CCCCN)C(=O)N[C@H](C(=O)O)[C@@H](C)CC [HB2270, IEKI] (H-IEKI-OH; N-terminus and C-terminus assumed)",CC50 at 24 h,[1],> 500 µg/mL
"CC[C@H](C)[C@H](N)C(=O)N[C@@H](CCC(N)=O)C(=O)N[C@@H](CCCCN)C(=O)N[C@H](C(=O)O)[C@@H](C)CC [HB2271, IQKI] (H-IQKI-OH; N-terminus and C-terminus assumed)",CC50 at 24 h,[1],> 500 µg/mL
"CC[C@H](C)[C@H](N)C(=O)N[C@@H](CCC(=O)O)C(=O)N[C@@H](CCCCN)C(=O)N[C@@H](CCSC)C(=O)O [HB2233, IEKM] (H-IEKM-OH)",CC50 at 24 h,[1],> 500 µg/mL
"CC[C@H](C)[C@H](N)C(=O)N[C@@H](CCCCN)C(=O)N[C@@H](CCCCN)C(=O)N[C@@H](CC(C)C)C(=O)O [HB2274, IKKL] (H-IKKL-OH; N-terminus and C-terminus assumed)",CC50 at 24 h,[1],> 500 µg/mL
"CC[C@H](C)[C@H](N)C(=O)N[C@@H](CCCCN)C(=O)N[C@@H](CCCCN)C(=O)N[C@@H](Cc1c[nH]c2ccccc12)C(=O)O [HB2272, IKKW] (H-IKKW-OH; N-terminus and C-terminus assumed)",CC50 at 24 h,[1],> 500 µg/mL
"LL-37 (LLGDFFRKSKEKIGKEFKRIVQRIKDFLRNLVPRTES; Antibacterial peptide LL-37; UniProt P49913 134-170, looked up) [Human cathelicidin peptide, used as positive control to promote angiogenesis]",capillary tube formation on HUVEC (in words),[2]; 3 and 5 hr treatment,"sprouting of new capillary tubes becomes visible just after 3 hr; also recorded: After 5 hr treatment with LL-37, the closed polygons are formed; also recorded: also stimulate angiogenesis"
same,Promote tube formation 3 hrs,"[2]; 3 hrs, values ≥3 considered significant induction of angiogenesis",3*
same,Promote tube formation 5 hrs,"[2]; 5 hrs, values ≥3 considered significant induction of angiogenesis",4*
"CC(C)[C@H](N)C(=O)N[C@@H](CCC(=O)O)C(=O)N[C@@H](CCCCN)C(=O)N[C@@H](Cc1ccccc1)C(=O)O [HB2267, VEKF] (H-VEKF-OH; N-terminus and C-terminus assumed)",CC50 at 24 h,[1],> 500 µg/mL
Lipoteichoic acid [LTA alone],IL-6 expression (arbitrary),[3],1.248 arbitrary
"CC[C@H](C)[C@H](N)C(=O)N[C@@H](CCCCN)C(=O)N[C@@H](CCCCN)C(=O)N[C@H](C(=O)O)C(C)C [HB2273, IKKV] (H-IKKV-OH; N-terminus and C-terminus assumed)",CC50 at 24 h,[1],> 500 µg/mL
"C=C1/C(=C\C=C2/CCC[C@]3(C)[C@@H]([C@H](C)/C=C/[C@@H](O)C4CC4)CC[C@@H]23)C[C@@H](O)C[C@@H]1O [Calcipotriol, calcipotriol]",downregulation of HBD-2,"[4]; 72 hr treatment, qPCR",9.0 fold
same,downregulation of psoriasin,"[4]; 72 hr treatment, qPCR",2.3 fold
same,Fold change in gene expression: Calgranulin C,"[4]; 72 hr, HB2233 at 200 μg/ml",−1.3 fold
same,Fold change in gene expression: ENA-78,"[4]; 72 hr, HB2233 at 200 μg/ml",1.6 fold
same,Fold change in gene expression: Elafin,"[4]; 72 hr, HB2233 at 200 μg/ml",−1.4 fold
same,Fold change in gene expression: GRO alpha,"[4]; 72 hr, HB2233 at 200 μg/ml",1.3 fold
same,Fold change in gene expression: HBD-2,"[4]; 72 hr, HB2233 at 200 μg/ml",−9.0 fold
same,Fold change in gene expression: IL-8,"[4]; 72 hr, HB2233 at 200 μg/ml",1.3 fold
same,Fold change in gene expression: Ki-67,"[4]; 72 hr, HB2233 at 200 μg/ml",−1.1 fold
same,Fold change in gene expression: LL-37,"[4]; 72 hr, HB2233 at 200 μg/ml",5.1 fold
same,Fold change in gene expression: P63,"[4]; 72 hr, HB2233 at 200 μg/ml",−1.4 fold
same,Fold change in gene expression: Psoriasin,"[4]; 72 hr, HB2233 at 200 μg/ml",−2.3 fold
same,Fold change in gene expression: SLPI,"[4]; 72 hr, HB2233 at 200 μg/ml",2.1 fold
same,Fold change in gene expression: Transglutaminase,"[4]; 72 hr, HB2233 at 200 μg/ml",1.5 fold
same,Fold change in gene expression: ENA-78,[4]; [5],does not seem to affect
same,Fold change in gene expression: GRO alpha,[4]; [5],does not seem to affect
same,Fold change in gene expression: Ki-67,[4]; [5],down-regulate
